Source: article PMC6151428, “Discovery of Novel N-Substituted Prolinamido Indazoles as Potent Rho Kinase Inhibitors and Vasorelaxation Agents” (Molecules : A Journal of Synthetic Chemistry and Natural …, 2017)
Like-named read-outs stand apart in the source and are kept apart here.

Experiments:
rat aortic rings [1] = assay: Vasorelaxant activity test, high-potassium model; details: rat aortic rings constricted with high K+ (60 mmol/L); a: mean N = 6; b: single determination; -- = No activity
Excerpt: (§1) Abnormalities in the Rho/ROCK signaling pathway are associated with various cardiovascular diseases, especially hypertension. The inhibition of the Rho/ROCK pathway can cause the vessels to relax. The norepinephrine (NE)- or potassium chloride (KCl)-induced model of the rat aortic ring can trigger sustained vessel contraction and is usually used to evaluate vasorelaxant activity. DL0805 has shown vasorelaxant activity. Therefore, the nine compounds with significant inhibition against ROCK I were further tested for their vasorelaxant activity in rat aortic rings in both the high-potassium and NE models (Table 3). […] The potent active compound 4b with excellent activity has been further evaluated, and further pharmacokinetic and safety evaluations are in progress.
(§2) Male Sprague-Dawley rats weighing 240–280 g (Vital River Laboratories, Beijing, China) were maintained in a 12-h light/dark cycle at 24 °C in a relative humidity of 60% room, and received food and water ad libitum. The animal care and handling were performed in accordance with the Guide for the Care and Use of Laboratory Animals published by the US National Institutes of Health and the Laboratories Institutional Animal Care and Use Committee of the Chinese Academy of Medical Science and Peking Union Medical College (ethic approval number: 00001012).
(§3) The vasorelaxant activity assay was performed as described previously. Briefly, the descending thoracic aorta was isolated after rats were euthanized by cervical dislocation. Then, the aorta was cut into ring segments (3–4 mm in length). The endothelial layer of the aorta was destroyed by gently rubbing the luminal surface with a moist cotton swab when necessary. Two stainless-steel triangles were inserted into the lumen of each ring. One triangle was fixed, and the other attached to a force transducer. Changes in isometric force were recorded on a BIOPAC polygraph (MP100WSW, Biopac Systems, Inc, Goleta, CA, USA). The rings were mounted in organ baths containing 10 mL Krebs-Henseleit (K-H) buffer with the following composition (mM): NaCl 120, KCl 4.8, MgSO4 1.4, KH2PO4 1.2, glucose 11.0, CaCl2 2.5, NaHCO3 25.0 and EDTA 0.01. The K-H buffer was continuously bubbled with 95% O2/5% CO2 at 37 °C. Rings were allowed to equilibrate for 60 min at a resting tension of 1.2 g with changes of buffer every 20 min.
(§4) After the equilibration period, the aortic rings were constricted with a high K^+ (60 mM) K-H solution to stimulate the tissue and to test its availability. Then, the rings were washed with normal K-H buffer to restore the basic tension of 1.2 g. The aortic rings were then stimulated with a high K^+ (60 mmol/L) K-H buffer ornorepinephrine (1 μM) to evaluate the vasorelaxant effects of the compounds. When the contraction reached the platform, compounds were added to the bath in batches at 5-min intervals to reach the accumulative concentrations of 1, 2, 5, 10, 25 and 50 μM. The tension of vessels was recorded and nonlinear regression was used to calculate the EC50 values.

ROCK I [2] = molecular target: T1, ROCK I (Homo sapiens, UniProt Q13464); assay: Rho kinase activity assay (Cyclex CY-1160 kit); assay type: biochemical
T1 construct: purchased Cyclex, Nagoya, Japan CY-1160
Protocol: Briefly, the compounds at 20 μM were pre-incubated in a system wherein ROCK I (0.02 ng/μL) phosphorylates the kinase substrate’s myosin-binding subunit (MBS) pre-absorbed onto the microplate in the presence of Mg^2+ and ATP. Then, the system was washed after incubation at 30 °C for 30 min. 100 μL of horseradish peroxidase-conjugated anti-AF20 antibody was added to the wells and then incubated for 30 min at room temperature. The reaction system was then incubated with the substrate tetra-methylbenzidine (TMB), which can be catalyzed from a colorless solution to a blue solution. The absorbance was measured at a wavelength of 450 nm on a microplate reader. The color reflects the relative level of ROCK I activity. The inhibitory rates of the compounds on ROCK I were obtained from OD 450 nm and the IC50 values were calculated by nonlinear regression.

ROCK I [3] = molecular target: T1, ROCK I; design: method as in PMID 22609784; details: lead discovered by high-throughput screening, previous article; read-out: IC50 against ROCK I; cited from earlier work
rat aortic rings [4] = assay: Vasorelaxant activity test, NE model; details: rat aortic rings constricted with norepinephrine (1 μM); a: mean N = 6; b: single determination; -- = No activity
Excerpt: as §1, §2, §3, §4

T1 sequence (Q13464 whole entry, species assumed): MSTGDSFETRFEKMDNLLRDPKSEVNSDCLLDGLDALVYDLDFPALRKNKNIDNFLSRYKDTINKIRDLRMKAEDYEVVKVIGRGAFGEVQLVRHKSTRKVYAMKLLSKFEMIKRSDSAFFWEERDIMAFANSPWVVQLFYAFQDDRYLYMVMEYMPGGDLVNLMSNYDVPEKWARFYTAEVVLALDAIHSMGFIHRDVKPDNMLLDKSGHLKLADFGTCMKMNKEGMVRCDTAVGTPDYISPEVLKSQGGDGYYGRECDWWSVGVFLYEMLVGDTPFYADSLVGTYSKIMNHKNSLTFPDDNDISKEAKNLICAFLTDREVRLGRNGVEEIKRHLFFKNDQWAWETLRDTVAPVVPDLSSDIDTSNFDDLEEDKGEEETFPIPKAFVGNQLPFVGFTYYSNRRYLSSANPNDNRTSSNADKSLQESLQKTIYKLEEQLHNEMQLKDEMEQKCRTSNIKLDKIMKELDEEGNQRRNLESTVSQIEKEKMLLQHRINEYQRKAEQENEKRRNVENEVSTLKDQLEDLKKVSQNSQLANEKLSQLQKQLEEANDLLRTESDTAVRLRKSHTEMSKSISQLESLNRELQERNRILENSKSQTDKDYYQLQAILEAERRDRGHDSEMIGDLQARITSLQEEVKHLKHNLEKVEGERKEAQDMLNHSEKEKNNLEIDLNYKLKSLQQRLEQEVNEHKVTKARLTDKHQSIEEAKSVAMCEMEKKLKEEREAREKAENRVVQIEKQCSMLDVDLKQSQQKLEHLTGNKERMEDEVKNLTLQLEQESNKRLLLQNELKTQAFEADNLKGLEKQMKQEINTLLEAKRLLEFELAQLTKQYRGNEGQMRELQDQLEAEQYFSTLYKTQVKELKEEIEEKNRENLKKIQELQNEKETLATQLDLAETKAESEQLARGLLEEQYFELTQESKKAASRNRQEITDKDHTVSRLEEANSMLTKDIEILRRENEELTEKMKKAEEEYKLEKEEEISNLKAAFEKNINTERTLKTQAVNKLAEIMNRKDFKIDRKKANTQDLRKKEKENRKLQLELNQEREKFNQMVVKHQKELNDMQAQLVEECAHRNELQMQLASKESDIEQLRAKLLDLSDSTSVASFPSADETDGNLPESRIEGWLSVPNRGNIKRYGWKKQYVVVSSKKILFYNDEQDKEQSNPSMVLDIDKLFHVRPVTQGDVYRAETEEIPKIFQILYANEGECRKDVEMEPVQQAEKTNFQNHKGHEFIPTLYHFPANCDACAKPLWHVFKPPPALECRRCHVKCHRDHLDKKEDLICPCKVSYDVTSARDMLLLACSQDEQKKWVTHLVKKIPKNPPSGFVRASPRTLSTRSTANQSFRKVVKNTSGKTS

## N#Cc1n[nH]c2ccc([N+](=O)[O-])cc12 [DL0805, 5-Nitro-1H-indazole-3-carbonitrile, reference compound]
Rat aortic rings [1]
  EC50: 9.44 µM
ROCK I [2]; a: means of multiple experiments (N = 4), errors within 30% of the mean, b: single determinations, read-out: IC50 against ROCK I
  IC50: 6.67 µM
ROCK I [2]; compound concentration 20 μM, single determinations
  inhibition at 20 µM: 72.3%
ROCK I [3]
  IC50: 6.7 µM
Rat aortic rings [4]
  EC50: 28.8 µM
